Experiments:
Assay type in all cases: in vivo
rice (Oryza sativa) = test: Test D flooded paddy test, visual plant response rating; conditions: 250 g ai/ha, scale 0 to 100 (0 no effect, 100 complete control), 13 to 15 d
Protocol: (§1) Plant species in the flooded paddy test selected from rice (Oryza sativa), sedge umbrella (small-flower umbrella sedge, Cyperus difformis) duck salad (Heteranthera limosa), and barnyardgrass (Echinochloa crus-galli) were grown to the 2-leaf stage for testing. At time of treatment, test pots were flooded to 3 cm above the soil surface, treated by application of test compounds directly to the paddy water, and then maintained at that water depth for the duration of the test. Treated plants and controls were maintained in a greenhouse for 13 to 15 d, after which time all species were compared to controls and visually evaluated. Plant response ratings, summarized in Table D, are based on a scale of 0 to 100 where 0 is no effect and 100 is complete control. A dash (-) response means no test result.

[1] = test system: duck salad (Heteranthera limosa); test: as above; conditions: 250 g ai/ha, scale 0 to 100 (0 no effect, 100 complete control), 13 to 15 d
Protocol: as §1

[2] = test system: barnyardgrass (Echinochloa crus-galli); test: as above; conditions: 250 g ai/ha, scale 0 to 100 (0 no effect, 100 complete control), 13 to 15 d
Protocol: as §1

[3] = test system: sedge umbrella (small-flower umbrella sedge, Cyperus difformis); test: as above; conditions: 250 g ai/ha, scale 0 to 100 (0 no effect, 100 complete control), 13 to 15 d
Protocol: as §1

[4] = test system: pigweed (Amaranthus retroflexus); test: Test C preemergence, visual plant response rating
Text: (§2) Seeds of plant species selected from barnyardgrass (Echinochloa crus-galli), kochia (Bassia scoparia), ragweed (common ragweed, Ambrosia artemisiifolia), Italian ryegrass (Lolium mutiflorum), foxtail, giant (giant foxtail, Setaria faberi), foxtail, green (green foxtail, Setaria viridis), and pigweed (Amaranthus retroflexus) were planted into a blend of loam soil and sand and treated preemergence with a directed soil spray using test chemicals formulated in anon-phytotoxic solvent mixture which included a surfactant.
(§3) At the same time, plants selected from these weed species and also wheat (Triticum aestivum), corn (Zea mays), blackgrass (Alopecurus myosuroides), and galium (catchweed bedstraw, Galium aparine) were planted in pots containing the same blend of loam soil and sand and treated with post emergence applications of test chemicals formulated in the same manner. Plants ranged in height from 2 to 10 cm and were in the one- to two-leaf stage for the postemergence treatment. Treated plants and untreated controls were maintained in a greenhouse for approximately 10 d, after which time all treated plants were compared to untreated controls and visually evaluated for injury. Plant response ratings, summarized in Table C, are based on a 0 to 100 scale where 0 is no effect and 100 is complete control. A dash (-)response means no test result.

[5] = test system: Italian ryegrass (Lolium mutiflorum); test: Test C preemergence, visual plant response rating
Text: as §2, §3

[6] = test system: barnyardgrass (Echinochloa crus-galli); test: Test C preemergence, visual plant response rating
Text: as §2, §3

kochia (Bassia scoparia) [7] = test: Test C preemergence, visual plant response rating
Text: as §2, §3

[8] = test system: foxtail, giant (giant foxtail, Setaria faberi); test: Test C preemergence, visual plant response rating
Text: as §2, §3

[9] = test system: galium (catchweed bedstraw, Galium aparine); test: Test C postemergence, visual plant response rating
Text: as §2, §3

[10] = test system: pigweed (Amaranthus retroflexus); test: Test C postemergence, visual plant response rating
Text: as §2, §3

[11] = test system: Italian ryegrass (Lolium mutiflorum); test: Test C postemergence, visual plant response rating
Text: as §2, §3

[12] = test system: barnyardgrass (Echinochloa crus-galli); test: Test C postemergence, visual plant response rating
Text: as §2, §3

[13] = test system: ragweed (common ragweed, Ambrosia artemisiifolia); test: Test C postemergence, visual plant response rating
Text: as §2, §3

kochia (Bassia scoparia) [14] = test: Test C postemergence, visual plant response rating
Text: as §2, §3

[15] = test system: wheat (Triticum aestivum); test: Test C postemergence, visual plant response rating
Text: as §2, §3

[16] = test system: foxtail, giant (giant foxtail, Setaria faberi); test: Test C postemergence, visual plant response rating
Text: as §2, §3

corn (Zea mays) = test: Test C postemergence, visual plant response rating
Text: as §2, §3

[17] = test system: blackgrass (Alopecurus myosuroides); test: Test C postemergence, visual plant response rating
Text: as §2, §3

[18] = Test C, 31 g ai/ha, 0 is no effect, 100 is complete control
[19] = Test C, postemergence, 125 g ai/ha
[20] = Test C, 125 g ai/ha, 0 is no effect, 100 is complete control

Compound | Plant response rating, Rice (Flood) (rice (Oryza sativa)) | Plant response rating, Ducksalad (Flood) [1] | Plant response rating, Barnyardgrass (Flood) [2] | Plant response rating, Sedge, Umbrella (Flood) [3] | Pigweed plant response rating (0 to 100 scale) [4, 18] | Ryegrass, Italian plant response rating (0 to 100 scale) [5, 18] | Barnyardgrass plant response rating (0 to 100 scale) [6, 18] | Kochia plant response rating (0 to 100 scale) (kochia (Bassia scoparia) [7]; [18]) | Foxtail, Giant plant response rating (0 to 100 scale) [8, 18] | Galium plant response rating (0 to 100 scale) ([9]; Postemergence, 31 g ai/ha) | Galium plant response rating (0 to 100 scale) [9, 19] | Pigweed plant response rating (0 to 100 scale) ([10]; Postemergence, 31 g ai/ha) | Pigweed plant response rating (0 to 100 scale) [10, 19] | Ryegrass, Italian plant response rating (0 to 100 scale) ([11]; Postemergence, 31 g ai/ha) | Ryegrass, Italian plant response rating (0 to 100 scale) [11, 19] | Barnyardgrass plant response rating (0 to 100 scale) ([12]; Postemergence, 31 g ai/ha) | Barnyardgrass plant response rating (0 to 100 scale) [12, 19] | Ragweed plant response rating (0 to 100 scale) ([13]; Postemergence, 31 g ai/ha) | Ragweed plant response rating (0 to 100 scale) [13, 19] | Kochia plant response rating (0 to 100 scale) (kochia (Bassia scoparia) [14]; Postemergence, 31 g ai/ha) | other results
CON=C(c1cc(Cl)cc(Cl)c1)c1c(O)c(C)nn(C)c1=O [Compound 189] | 15 | 25 | 0 | 35 | 70 | 90 | 20 | 0 | 20 | 100 | 100 | 50 | 80 | 90 | 100 | 30 | 50 | 70 | 90 | 70 | Pigweed plant response rating (0 to 100 scale) ([4]; 125 g ai/ha): 100; Ryegrass, Italian plant response rating (0 to 100 scale) ([5]; 125 g ai/ha): 100; Barnyardgrass plant response rating (0 to 100 scale) ([6]; 125 g ai/ha): 90; Kochia plant response rating (0 to 100 scale) (kochia (Bassia scoparia) [7]; 125 g ai/ha): 40; Foxtail, Giant plant response rating (0 to 100 scale) ([8]; 125 g ai/ha): 90; Kochia plant response rating (0 to 100 scale) (kochia (Bassia scoparia) [14]; [19]): 90; Wheat plant response rating (0 to 100 scale) ([15]; Postemergence, 31 g ai/ha): 10; Wheat plant response rating (0 to 100 scale) [15, 19]: 50; Foxtail, Giant plant response rating (0 to 100 scale) ([16]; Postemergence, 31 g ai/ha): 50; Foxtail, Giant plant response rating (0 to 100 scale) [16, 19]: 80; Corn plant response rating (0 to 100 scale) (corn (Zea mays); Postemergence, 31 g ai/ha): 0; Corn plant response rating (0 to 100 scale) (corn (Zea mays); [19]): 10; Blackgrass plant response rating (0 to 100 scale) ([17]; Postemergence, 31 g ai/ha): 10; Blackgrass plant response rating (0 to 100 scale) [17, 19]: 30
CO/N=C(\c1c(O)c(Cl)nn(C)c1=O)c1cc(Br)cc2ccccc12 [Compound 250] | 10 | 85 | 25 | 70 | 10 | 0 | 70 | 0 | 40 | 90 | 100 | 50 | 70 | 0 | 0 | 50 | 80 | 100 | 100 | 40 | Pigweed plant response rating (0 to 100 scale) [4, 20]: 70; Ryegrass, Italian plant response rating (0 to 100 scale) [5, 20]: 0; Barnyardgrass plant response rating (0 to 100 scale) [6, 20]: 80; Kochia plant response rating (0 to 100 scale) (kochia (Bassia scoparia) [7]; [20]): 80; Foxtail, Giant plant response rating (0 to 100 scale) [8, 20]: 80; Kochia plant response rating (0 to 100 scale) (kochia (Bassia scoparia) [14]; [19]): 60; Wheat plant response rating (0 to 100 scale) ([15]; Postemergence, 31 g ai/ha): 0; Wheat plant response rating (0 to 100 scale) [15, 19]: 0; Foxtail, Giant plant response rating (0 to 100 scale) ([16]; Postemergence, 31 g ai/ha): 20; Foxtail, Giant plant response rating (0 to 100 scale) [16, 19]: 80; Corn plant response rating (0 to 100 scale) (corn (Zea mays); Postemergence, 31 g ai/ha): 0; Corn plant response rating (0 to 100 scale) (corn (Zea mays); [19]): 10; Blackgrass plant response rating (0 to 100 scale) ([17]; Postemergence, 31 g ai/ha): 10; Blackgrass plant response rating (0 to 100 scale) [17, 19]: 30
CCON=C(c1cc(Cl)cc(Br)c1)c1c(O)c(C)nn(C)c1=O [Compound 180] | 0 | 60 | 40 | 65 | 50 | 40 | 0 | 0 | 70 | 90 | 100 | 10 | 70 | 70 | 100 | 30 | 60 | 100 | 100 | 80 | Pigweed plant response rating (0 to 100 scale) ([4]; 125 g ai/ha): 80; Ryegrass, Italian plant response rating (0 to 100 scale) ([5]; 125 g ai/ha): 100; Barnyardgrass plant response rating (0 to 100 scale) ([6]; 125 g ai/ha): 80; Kochia plant response rating (0 to 100 scale) (kochia (Bassia scoparia) [7]; 125 g ai/ha): 100; Foxtail, Giant plant response rating (0 to 100 scale) ([8]; 125 g ai/ha): 100; Kochia plant response rating (0 to 100 scale) (kochia (Bassia scoparia) [14]; [19]): 90; Wheat plant response rating (0 to 100 scale) ([15]; Postemergence, 31 g ai/ha): 30; Wheat plant response rating (0 to 100 scale) [15, 19]: 50; Foxtail, Giant plant response rating (0 to 100 scale) ([16]; Postemergence, 31 g ai/ha): 70; Foxtail, Giant plant response rating (0 to 100 scale) [16, 19]: 90; Corn plant response rating (0 to 100 scale) (corn (Zea mays); Postemergence, 31 g ai/ha): 0; Corn plant response rating (0 to 100 scale) (corn (Zea mays); [19]): 20; Blackgrass plant response rating (0 to 100 scale) ([17]; Postemergence, 31 g ai/ha): 0; Blackgrass plant response rating (0 to 100 scale) [17, 19]: 30

Source: patent US20210045385A1, “PYRIDAZINONE-SUBSTITUTED KETOXIMES AS HERBICIDES” (FMC Corporation, priority 2018, published 2021)
